19 molecules from US11008313B2, “Substituted 1-methyl-1,2,3,4-tetrahydroisoquinoline molecules as PCSK9 allosteric binders” (Merck Sharp & Dohme Corp., priority 2016, dated 2021) can be followed below.

pIC50: −log10 of the molar value.

In assay [1] the target is T1, PCSK9 (Homo sapiens, UniProt Q8NBP7). The assay can be described thus: Differential scanning calorimetry (DSC) assay, direct binding / thermal stabilization of PCSK9. The following applies: Tm(with compound)−Tm(no compound); 2 μM PCSK9, 300 μM test compound. A digest of the protocol:
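Thermal stabilization of 2 μM PCSK9 with or without 300 μM compound in 25 mM HEPES pH 7.5, 150 mM NaCl, 1 mM CaCl2, 3.75% DMSO. Sample heated 20–80 °C at 200 °C/hr against buffer reference. Protein Tm derived from each thermogram.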
Background: DSC measures the heat that a sample takes up or gives off during a temperature scan.

Assay [2] deals with T1, PCSK9. The assay can be described thus: Fluorescence polarization competition binding assay (probe: compound of Example 57). The settings on record: 2 μM PCSK9, 50 nM compound of Example 57 as probe, overnight incubation; read-out: FP IC. Put shortly:
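Competition fluorescence-polarization binding: 2 μM PCSK9 with 50 nM fluorescent probe in 20 mM HEPES pH 7.5, 150 mM NaCl, 1 mM CaCl2, 0.005% P-20, incubated with test compound overnight in the dark. Anisotropy read; % inhibition relative to DMSO wells and probe-without-PCSK9 wells.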
For orientation: In fluorescence polarisation assays a small probe gives low polarisation when free and higher when bound to something large.

T1 sequence (Q8NBP7 153-692): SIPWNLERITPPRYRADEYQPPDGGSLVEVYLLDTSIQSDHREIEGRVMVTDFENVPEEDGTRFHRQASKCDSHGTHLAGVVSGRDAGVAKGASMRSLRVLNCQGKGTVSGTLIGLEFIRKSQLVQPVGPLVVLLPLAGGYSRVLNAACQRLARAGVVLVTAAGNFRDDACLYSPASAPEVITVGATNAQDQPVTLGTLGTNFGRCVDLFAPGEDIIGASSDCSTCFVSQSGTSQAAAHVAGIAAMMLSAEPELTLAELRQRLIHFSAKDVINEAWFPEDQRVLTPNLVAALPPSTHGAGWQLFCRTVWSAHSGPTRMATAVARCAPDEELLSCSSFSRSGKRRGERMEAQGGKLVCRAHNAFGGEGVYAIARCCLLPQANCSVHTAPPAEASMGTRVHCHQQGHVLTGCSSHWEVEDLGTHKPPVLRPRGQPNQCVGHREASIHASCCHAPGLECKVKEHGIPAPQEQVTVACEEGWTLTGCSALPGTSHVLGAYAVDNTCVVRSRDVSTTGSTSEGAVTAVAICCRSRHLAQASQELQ

As a reminder, the ΔTm is the change in melting temperature against a reference sample. With `Cc1nnc(-c2cn(CCOc3cc4c(cc3Oc3ccc(C(=O)O)c(F)c3)[C@@](C)(CC(=O)Nc3nccs3)NCC4)nn2)o1` [Example 39, (R)-2-fluoro-4-((1-methyl-6-(2-(4-(5-methyl-1,3,4-oxadiazol-2-yl)-1H-1,2,3-triazol-1-yl)ethoxy)-1-(2-oxo-2-(thiazol-2-ylamino)ethyl)-1,2,3,4-tetrahydroisoquinolin-7-yl)oxy)benzoic acid], the ΔTm at 300 µM at PCSK9 [1] turned out to be 5.98 °C. Moreover, the pIC50 on PCSK9 [2] was 6.54.

For the molecule `Cc1cn(-c2ccc(-c3cn(CCOc4cc5c(cc4Oc4ccc(C(=O)O)c(F)c4)[C@@](C)(CC(=O)Nc4nccs4)NCC5)nn3)cc2C)cn1` [Example 40, (R)-2-fluoro-4-((1-methyl-6-(2-(4-(3-methyl-4-(4-methyl-1H-imidazol-1-yl)phenyl)-1H-1,2,3-triazol-1-yl)ethoxy)-1-(2-oxo-2-(thiazol-2-ylamino)ethyl)-1,2,3,4-tetrahydroisoquinolin-7-yl)oxy)benzoic acid], at PCSK9 [1], the ΔTm at 300 µM came to 6.75 °C. The pIC50 on PCSK9 [2] was 6.52.

Consider `COCCOCc1cn(CCOc2cc3c(cc2Oc2ccc(C(=O)O)c(F)c2)[C@@](C)(CC(=O)Nc2nccs2)NCC3)nn1` [Example 41, (R)-2-fluoro-4-((6-(2-(4-((2-methoxyethoxy)methyl)-1H-1,2,3-triazol-1-yl)ethoxy)-1-methyl-1-(2-oxo-2-(thiazol-2-ylamino)ethyl)-1,2,3,4-tetrahydroisoquinolin-7-yl)oxy)benzoic acid], for which, on PCSK9 [1], the ΔTm at 300 µM was found to be 7.18 °C. Moreover, the pIC50 at PCSK9 [2] was 6.45.

In the case of `C[C@]1(CC(=O)Nc2nccs2)NCCc2cc(OCCn3cc(CN4CCNC4=O)nn3)c(Oc3ccc(C(=O)O)c(F)c3)cc21` [Example 42, (R)-2-fluoro-4-((1-methyl-1-(2-oxo-2-(thiazol-2-ylamino)ethyl)-6-(2-(4-((2-oxoimidazolidin-1-yl)methyl)-1H-1,2,3-triazol-1-yl)ethoxy)-1,2,3,4-tetrahydroisoquinolin-7-yl)oxy)benzoic acid], the thermal shift (ΔTm) at 300 µM on PCSK9 [1] stood at 5.97 °C. Further, the pIC50 at PCSK9 [2] is 6.41.

Regarding `COc1ccc(-n2nc(-c3cn(CCOc4cc5c(cc4Oc4ccc(C(=O)O)c(F)c4)[C@@](C)(CC(=O)Nc4nccs4)NCC5)nn3)cc(C)c2=O)cc1` [Example 43, (R)-2-fluoro-4-((6-(2-(4-(1-(4-methoxyphenyl)-5-methyl-6-oxo-1,6-dihydropyridazin-3-yl)-1H-1,2,3-triazol-1-yl)ethoxy)-1-methyl-1-(2-oxo-2-(thiazol-2-ylamino)ethyl)-1,2,3,4-tetrahydroisoquinolin-7-yl)oxy)benzoic acid], the thermal shift (ΔTm) at 300 µM at PCSK9 [1] was 5.45 °C. Besides, the pIC50 on PCSK9 [2] is 6.38.

For `C[C@]1(CC(=O)Nc2nccs2)NCCc2cc(OCCn3cc(CCCCCCCCC(=O)O)nn3)c(Oc3ccc(C(=O)O)c(F)c3)cc21` [Example 44, (R)-4-((6-(2-(4-(8-carboxyoctyl)-1H-1,2,3-triazol-1-yl)ethoxy)-1-methyl-1-(2-oxo-2-(thiazol-2-ylamino)ethyl)-1,2,3,4-tetrahydroisoquinolin-7-yl)oxy)-2-fluorobenzoic acid], the ΔTm at 300 µM on PCSK9 [1] amounted to 6.89 °C. The pIC50 on PCSK9 [2] is 6.37.

With `Cc1ccc(-c2cn(CCOc3cc4c(cc3Oc3ccc(C(=O)O)c(F)c3)[C@@](C)(CC(=O)Nc3nccs3)NCC4)nn2)cn1` [Example 45, (R)-2-fluoro-4-((1-methyl-6-(2-(4-(6-methylpyridin-3-yl)-1H-1,2,3-triazol-1-yl)ethoxy)-1-(2-oxo-2-(thiazol-2-ylamino)ethyl)-1,2,3,4-tetrahydroisoquinolin-7-yl)oxy)benzoic acid], the ΔTm at 300 µM at PCSK9 [1] was 6.96 °C. On PCSK9 [2], the pIC50 is 6.28.

With `CC(=O)NCc1cn(CCOc2cc3c(cc2Oc2ccc(C(=O)O)c(F)c2)[C@@](C)(CC(=O)Nc2nccs2)NCC3)nn1` [Example 46], the ΔTm at 300 µM at PCSK9 [1] came out at 6.48 °C. Further, the pIC50 on PCSK9 [2] was 6.22.

For the molecule `C[C@]1(CC(=O)Nc2nccs2)NCCc2cc(OCCn3cc(COc4ccccc4)nn3)c(Oc3ccc(C(=O)O)c(F)c3)cc21` [Example 47, (R)-2-fluoro-4-((1-methyl-1-(2-oxo-2-(thiazol-2-ylamino)ethyl)-6-(2-(4-(phenoxymethyl)-1H-1,2,3-triazol-1-yl)ethoxy)-1,2,3,4-tetrahydroisoquinolin-7-yl)oxy)benzoic acid], the thermal shift (ΔTm) at 300 µM on PCSK9 [1] is 6.27 °C. Besides, at PCSK9 [2], the pIC50 was 6.19.

On to `C[C@]1(CC(=O)Nc2nccs2)NCCc2cc(OCCn3cc(C4(C(=O)O)CC4)nn3)c(Oc3ccc(C(=O)O)c(F)c3)cc21` [Example 48, (R)-4-((6-(2-(4-(1-carboxycyclopropyl)-1H-1,2,3-triazol-1-yl)ethoxy)-1-methyl-1-(2-oxo-2-(thiazol-2-ylamino)ethyl)-1,2,3,4-tetrahydroisoquinolin-7-yl)oxy)-2-fluorobenzoic acid], for which the shift in melting temperature (ΔTm) at 300 µM at PCSK9 [1] is 6.02 °C. For the same molecule, at PCSK9 [2], the pIC50 was 6.17.

Take `C[C@]1(CC(=O)Nc2nccs2)NCCc2cc(OCCn3cc(-c4cnccn4)nn3)c(Oc3ccc(C(=O)O)c(F)c3)cc21` [Example 49, (R)-2-fluoro-4-((1-methyl-1-(2-oxo-2-(thiazol-2-ylamino)ethyl)-6-(2-(4-(pyrazin-2-yl)-1H-1,2,3-triazol-1-yl)ethoxy)-1,2,3,4-tetrahydroisoquinolin-7-yl)oxy)benzoic acid]: at PCSK9 [1], the ΔTm at 300 µM was 6.29 °C. In addition, the pIC50 on PCSK9 [2] is 6.17.

Consider `C[C@]1(CC(=O)Nc2nccs2)NCCc2cc(OCCn3cc(CNS(C)(=O)=O)nn3)c(Oc3ccc(C(=O)O)c(F)c3)cc21` [Example 50, (R)-2-fluoro-4-((1-methyl-6-(2-(4-(methylsulfonamidomethyl)-1H-1,2,3-triazol-1-yl)ethoxy)-1-(2-oxo-2-(thiazol-2-ylamino)ethyl)-1,2,3,4-tetrahydroisoquinolin-7-yl)oxy)benzoic acid], for which, on PCSK9 [1], the ΔTm at 300 µM came to 6.74 °C. The pIC50 on PCSK9 [2] is 6.17.

On to `Cc1ccc(C2C(C(=O)O)c3ccccc3C(=O)N2c2cccc(-c3cn(CCOc4cc5c(cc4Oc4ccc(C(=O)O)c(F)c4)[C@@](C)(CC(=O)Nc4nccs4)NCC5)nn3)c2)cc1` (stereo partly drawn) [Example 51, 2-(3-(1-(2-(((R)-7-(4-carboxy-3-fluorophenoxy)-1-methyl-1-(2-oxo-2-(thiazol-2-ylamino)ethyl)-1,2,3,4-tetrahydroisoquinolin-6-yl)oxy)ethyl)-1H-1,2,3-triazol-4-yl)phenyl)-1-oxo-3-(p-tolyl)-1,2,3,4-tetrahydroisoquinoline-4-carboxylic acid], for which the ΔTm at 300 µM at PCSK9 [1] turned out to be 6.87 °C. Besides, at PCSK9 [2], the pIC50 was 6.15.

With `COc1ccccc1C(=O)Nc1ccccc1-n1cc(C(=O)NCc2cn(CCOc3cc4c(cc3Oc3ccc(C(=O)O)c(F)c3)[C@@](C)(CC(=O)Nc3nccs3)NCC4)nn2)nc1C` [Example 52, (R)-2-fluoro-4-((6-(2-(4-((1-(2-(2-methoxybenzamido)phenyl)-2-methyl-1H-imidazole-4-carboxamido)methyl)-1H-1,2,3-triazol-1-yl)ethoxy)-1-methyl-1-(2-oxo-2-(thiazol-2-ylamino)ethyl)-1,2,3,4-tetrahydroisoquinolin-7-yl)oxy)benzoic acid], at PCSK9 [1], the ΔTm at 300 µM is 5.58 °C. Also, at PCSK9 [2], the pIC50 was 6.11.

With `C[C@]1(CC(=O)Nc2nccs2)NCCc2cc(OCCn3cc(C(O)C(N)C(=O)O)nn3)c(Oc3ccc(C(=O)O)c(F)c3)cc21` (stereo partly drawn) [Example 53, 4-(((1R)-6-(2-(4-(2-amino-2-carboxy-1-hydroxyethyl)-1H-1,2,3-triazol-1-yl)ethoxy)-1-methyl-1-(2-oxo-2-(thiazol-2-ylamino)ethyl)-1,2,3,4-tetrahydroisoquinolin-7-yl)oxy)-2-fluorobenzoic acid], on PCSK9 [1], the thermal shift (ΔTm) at 300 µM worked out at 6.96 °C. Further, the pIC50 at PCSK9 [2] was 6.08.

As to `Cc1ccc(C2C(C(=O)O)c3ccccc3C(=O)N2c2cccc(-c3cn(CCOc4cc5c(cc4Oc4ccc(C(=O)O)c(F)c4)[C@@](C)(CC(=O)Nc4nccs4)NCC5)nn3)c2)cc1` (stereo partly drawn) [Example 54, 2-(3-(1-(2-(((R)-7-(4-carboxy-3-fluorophenoxy)-1-methyl-1-(2-oxo-2-(thiazol-2-ylamino)ethyl)-1,2,3,4-tetrahydroisoquinolin-6-yl)oxy)ethyl)-1H-1,2,3-triazol-4-yl)phenyl)-1-oxo-3-(p-tolyl)-1,2,3,4-tetrahydroisoquinoline-4-carboxylic acid], on PCSK9 [1], the “DSC ΔTm” value is 5.98 °C. Also, the pIC50 on PCSK9 [2] is 6.08.

`C[C@]1(CC(=O)Nc2nccs2)NCCc2cc(OCCn3cc(C(O)CN)nn3)c(Oc3ccc(C(=O)O)c(F)c3)cc21` (stereo partly drawn) [Example 55, 4-(((1R)-6-(2-(4-(2-amino-1-hydroxyethyl)-1H-1,2,3-triazol-1-yl)ethoxy)-1-methyl-1-(2-oxo-2-(thiazol-2-ylamino)ethyl)-1,2,3,4-tetrahydroisoquinolin-7-yl)oxy)-2-fluorobenzoic acid]: the shift in melting temperature (ΔTm) at 300 µM on PCSK9 [1] was 5.82 °C. The pIC50 at PCSK9 [2] is 6.06.

For `C[C@]1(CC(=O)Nc2nccs2)NCCc2cc(OCC3CCCCO3)c(Oc3ccc(C(=O)O)c(F)c3)cc21` (stereo partly drawn) [Example 62, 2-fluoro-4-(((1R)-1-methyl-1-(2-oxo-2-(thiazol-2-ylamino)ethyl)-6-((tetrahydro-2H-pyran-2-yl)methoxy)-1,2,3,4-tetrahydroisoquinolin-7-yl)oxy)benzoic acid], the ΔTm at 300 µM on PCSK9 [1] amounted to 6.03 °C. Further, the pIC50 on PCSK9 [2] is 6.28.

Take `C[C@]1(CC(=O)Nc2nccs2)NCCc2cc(OCC(=O)O)c(Oc3ccc(C(=O)O)c(F)c3)cc21` [Example 64, (R)-4-((6-(carboxymethoxy)-1-methyl-1-(2-oxo-2-(thiazol-2-ylamino)ethyl)-1,2,3,4-tetrahydroisoquinolin-7-yl)oxy)-2-fluorobenzoic acid]: on PCSK9 [1], the ΔTm at 300 µM came to 7.83 °C. The pIC50 on PCSK9 [2] was 6.53.
